What was measured:
ELOVL2 gene expression = test: Human clinical use example: ELOVL2 gene expression in intravitreal fluid after intravitreal decitabine; format: in vivo
Description: (§1) A person with bilateral, dry age-related macular degeneration (AMD) is seen in an ophthalmology clinic. They are otherwise healthy. They consent to an experimental study comparing demethylation therapy verses control. At baseline both eyes show a similar level of AMD as evidenced by clinical assessments for visual acuity, size of geographic atrophy as measured by autofluorescence, optical coherence tomography, and scotopic response on electroretinography. The patient is treated with 100 uL of decitabine (20 uM) formulated as a sterile, isotonic, pH buffered solution administered by intravitreal injection in their left eye (active treatment). They receive 100 ul of the same sterile, isotonic, pH buffered solution but without decitabine administered by intravitreal injection in their right eye (control treatment). Immediately following the administration of the active and control treatments, a sample of intravitreal fluid is withdrawn from each eye for baseline measurements of ELOVL2 expression and methylation level. It is observed that ELOVL2 is hypermethylated to a similar extent in both eyes. The levels of ELOVL2 expression are also similar and a low level of expression is observed in both eyes. […]
(§2) A person with dry age-related macular degeneration (AMD) with Geographic Atrophy is seen in an ophthalmology clinic. Their vision as assessed by scotopic response is declining. […]

ELOVL2 methylation = test: Human clinical use example: ELOVL2 methylation in intravitreal fluid after intravitreal decitabine; format: in vivo
Description: as §1, §2

patient with dry AMD [1] = test: Human clinical use example: clinical assessments (scotopic response, geographic atrophy) after intravitreal decitabine; format: in vivo
Description: A person with bilateral, dry age-related macular degeneration (AMD) is seen in an ophthalmology clinic. They are otherwise healthy. They consent to an experimental study comparing demethylation therapy verses control. At baseline both eyes show a similar level of AMD as evidenced by clinical assessments for visual acuity, size of geographic atrophy as measured by autofluorescence, optical coherence tomography, and scotopic response on electroretinography. The patient is treated with 100 uL of decitabine (20 uM) formulated as a sterile, isotonic, pH buffered solution administered by intravitreal injection in their left eye (active treatment). They receive 100 ul of the same sterile, isotonic, pH buffered solution but without decitabine administered by intravitreal injection in their right eye (control treatment). Immediately following the administration of the active and control treatments, a sample of intravitreal fluid is withdrawn from each eye for baseline measurements of ELOVL2 expression and methylation level. It is observed that ELOVL2 is hypermethylated to a similar extent in both eyes. The levels of ELOVL2 expression are also similar and a low level of expression is observed in both eyes. Both the active and control treatments are continued in the left and right eyes respectively with administrations every other week for 3 months. […] Immediately following the last administration, samples of intravitreal fluid are obtained from both eyes for measurement of ELOVL2 gene expression and methylation. The same clinical assessments for geographic atrophy performed at baseline are repeated for each eye. Significant differences are observed between the eye treated with decitabine compared to control. In the decitabine treated eye, ELOVL2 methylation is reduced by almost 30% and ELOVL2 gene expression is increased also by about 30% compared to baseline. Also, the scotopic response is increased by about 30% over baseline. […] In marked contrast, there is no observable change in the control eye in any of the other parameters. Gene methylation and gene expression and scotopic response values remain similar to those observed at baseline values. The patient returns to the clinic for a follow up visit at 6 months. […] Scotopic response in the control eye remains similar to the baseline value.
A person with dry age-related macular degeneration (AMD) with Geographic Atrophy is seen in an ophthalmology clinic. Their vision as assessed by scotopic response is declining. […] They are otherwise healthy. The patient is treated with 100 uL of decitabine (15 uM) formulated as a sterile, isotonic, pH buffered solution administered by intravitreal injection. […] The decitabine treatment is continued with the same dose administered every 5 weeks over a 12 month period. […] Following the last decitabine administration a sample of vitreous fluid is obtained and tested for ELOVL2 gene methylation and ELOVL2 gene expression. The studies reveal ELOVL2 methylation has decreased by almost 60% (from baseline) and ELOVL2 gene expression is increased by about 50% (over the baseline value).

ELOVL2 promoter [2] = test: ELOVL2 promoter methylation by MeDIP followed by qPCR in 5-Aza-dc treated WI-38 cells; format: cell-based, human; details: WI-38 fibroblasts, 2 μM for 2 days followed by 5 days of culture without the compound; MeDIP-qPCR vs untreated control (FIG. 2A)
Description: (§3) The effect of the ELOVL2 promoter methylation level on ELOVL2 expression was tested. WI-38 fibroblasts were treated with 5-Aza-2′-deoxycytidine (5-Aza-dc), a cytidine analog that inhibits DNA methyltransferase. The cells were treated for 2 days with 2 μM 5-Aza-dc followed by 5 days of culture without the compound. At the end of experiment, the expression of ELOVL2 was measured by qRT-PCR.
(§4) WI-38 and IMR-90 human fibroblasts were cultured in EMEM (ATCC) supplemented with 10% fetal bovine serum (Omega) and 1% penicillin/streptomycin (Gibco), and kept in a humidified incubator at 5% CO2 and 37° C. Confluence was calculated via ImageJ imaging software, including 3 fields of view per sample (10×). Upon confluence, cells were split and seeded at a 1:3 ratio. Population doublings (PD) were calculated by cell count. Knockdown lentivirus was generated using MISSION shRNA (Sigma) according to the manufacturer's instructions. 5-Aza-2′-deoxycitidine was purchased from TSZ Chem (CAS #2353-33-5), and dissolved in cell culture medium at a concentration of 2 μM. Cells were treated for a period of 48 hours. The medium was then replaced with regular cell culture medium, and the cells were cultured for 5 more days.
(§5) DNA and RNA were isolated from human fibroblasts and mouse tissues with TRIzol (Ambion) according to manufacturer's instructions. […]

WI-38 cells = test: Senescence-associated β-galactosidase staining of 5-Aza-dc treated WI-38 cells; format: cell-based, human; details: WI-38 fibroblasts, 2 μM; SA-β-Gal staining (FIG. 2C)
Description: as §3
as §4, with “5-Aza-2′-deoxycitidine was purchased from TSZ Chem (CAS #2353-33-5), and dissolved in cell culture medium at a concentration of 2 μM. Cells were treated for a period of 48 hours. The medium was then replaced with regular cell culture medium, and the cells were cultured for 5 more days.” left out
The SA-β-gal activity in cultured cells was determined using the Senescence β-Galactosidase Staining Kit (Cell Signaling Technology), according to the manufacturer's instructions. Cells were stained with DAPI afterwards, and percentages of cells that stained positive were calculated with imaging software (Keyence), including 3 fields of view (10×).

ELOVL2 promoter [3] = test: ELOVL2 methylation by MeDIP in mouse retinas after intraocular injection; format: in vivo; details: mouse retina, 1 μL of 2 μM intraocular every other week for 2 months from age 10 months, vs PBS eye; MeDIP (FIG. 5A)
Description: (§6) Finally, it was investigated whether the aging characteristics in mouse eyes could be reverted by DNA demethylation, including the ELOVL2 promoter. To do that, each mouse was injected with 1 μL of 2 μM 5-Aza-dc in one eye and 1 μL of PBS in the other eye, every other week over a period of 2 months starting at age of 10 months. It was found, using the MeDIP method, that methylation of the ELOVL2 promoter decreased after treatment (FIG. 5A).
(§7) DNA and RNA were isolated from human fibroblasts and mouse tissues with TRIzol (Ambion) according to manufacturer's instructions. RNA was converted to cDNA with iScript cDNA Synthesis Kit (Bio-Rad). qPCR was performed using SsoAdvanced Universal SYBR Green Supermix (Bio-Rad).
Methylated DNA Immunoprecipitation (MeDIP) was performed by shearing 1 μg DNA by Bioruptor (Diagenode) for 8 cycles on the high setting, each cycle consisting of 30 seconds on and 30 seconds off. Sheared DNA was denatured, incubated with 1 μg 5 mC antibody MABE146 (Millipore) for 2 hours, then with SureBeads protein G beads (Bio-Rad) for 1 hour. After washing, DNA was purified with QIAquick PCR Purification Kit (Qiagen). qPCR was then performed as above.
All animal procedures were conducted with the approval of the Institutional Animal Care Committee at the University of California, San Diego. C57BL/6N mouse zygotes were injected with CRISPR-Cas9 constructs. […]

ELOVL2 expression [4] = test: ELOVL2 expression by qPCR in mouse retinas after intraocular injection; format: in vivo; details: mouse retina, 1 μL of 2 μM intraocular every other week for 2 months from age 10 months, vs PBS eye; qPCR (FIG. 5B)
Description: as §6, §7
All animal procedures were conducted with the approval of the Institutional Animal Care Committee at the University of California, San Diego. C57BL/6N mouse zygotes were injected with CRISPR-Cas9 constructs. Oligos were injected into the cytoplasm of the zygotes at the pronuclei stage. Mice were housed on static racks in a conventional animal facility, and were fed ad libitum with Teklad Global 2020X diet. For the 5-Aza-dc injection study, mice were anesthetized by intraperitoneal injection of ketamine/xylazine (100 mg/kg and 10 mg/kg, respectively), and given an analgesic eye drop of Proparacaine (0.5%, Bausch & Lomb). […]

ELOVL2 expression [5] = test: ELOVL2 expression by qRT-PCR in 5-Aza-dc treated WI-38 cells; format: cell-based, human; details: WI-38 fibroblasts, 2 μM for 2 days followed by 5 days without the compound; qRT-PCR vs untreated control (FIG. 2B)
Description: as §3, §4, §5

mouse eyes = test: Scotopic ERG response in mouse eyes after intraocular injection; format: in vivo; details: 1 μL of 2 μM intraocular every other week for 2 months from age 10 months, vs PBS eye (FIG. 5C, FIG. 13)
Description: as §6
All animal procedures were conducted with the approval of the Institutional Animal Care Committee at the University of California, San Diego. C57BL/6N mouse zygotes were injected with CRISPR-Cas9 constructs. Oligos were injected into the cytoplasm of the zygotes at the pronuclei stage. Mice were housed on static racks in a conventional animal facility, and were fed ad libitum with Teklad Global 2020X diet. For the 5-Aza-dc injection study, mice were anesthetized by intraperitoneal injection of ketamine/xylazine (100 mg/kg and 10 mg/kg, respectively), and given an analgesic eye drop of Proparacaine (0.5%, Bausch & Lomb). Animals were intraocularly injected with 1 μL of PBS in one eye, and 1 μL of 2 μM 5-Aza-dc dissolved in PBS in the contralateral eye, every other week over a period of 2 months.
Electroretinograms (ERGs) were performed following a previously reported protocol. […]

patient with dry AMD [6] = test: Human clinical use example: tolerability of intravitreal decitabine; format: in vivo
Description: as §1, §2

[7] = Geographic Atrophy patient, 100 uL of 15 uM intravitreal every 5 weeks over 12 months
[8] = dry AMD patient, 100 uL of 20 uM intravitreal every other week for 3 months

scotopic response (ERG) (mouse eyes): improved
SMILES: Nc1ncn([C@H]2C[C@H](O)[C@@H](CO)O2)c(=O)n1 [5-Aza-dc, 5-Aza-2′-deoxycytidine]
ELOVL2 gene expression increased over the baseline value (ELOVL2 gene expression; [7]): about 50% | ELOVL2 gene expression increased compared to baseline (ELOVL2 gene expression; [8]): about 30% | ELOVL2 methylation decreased from baseline (ELOVL2 methylation; [7]): ~60% | ELOVL2 methylation reduced compared to baseline (ELOVL2 methylation; [8]): about 30% | geographic atrophy growth by fundus autofluorescence (patient with dry AMD [1]; [7]): no geographic atrophy growth | scotopic response increased over baseline (patient with dry AMD [1]; [7]): about 30% | scotopic response improvement over baseline (patient with dry AMD [1]; dry AMD patient, 20 uM bi-weekly for 3 months, follow up visit at 6 months): 20%-30% | growth of geographic atrophy by fundus autofluorescence compared to baseline (patient with dry AMD [1]; [8]): no progression | scotopic response increased over baseline (patient with dry AMD [1]; dry AMD patient, 100 uL of 20 uM intravitreal every other week for 3 months, after last administration): about 30% | ELOVL2 promoter methylation (ELOVL2 promoter [2]): reduced | percentage of senescent cells in culture (WI-38 cells): lower percentage of senescent cells | methylation of the ELOVL2 promoter (ELOVL2 promoter [3]): decreased | ELOVL2 expression (ELOVL2 expression [4]): upregulated | ELOVL2 expression (ELOVL2 expression [5]): upregulated | tolerability (patient with dry AMD [6]; [7]): well tolerated with no adverse effects observed | tolerability (patient with dry AMD [6]; [8]): equally well tolerated

Source: US10632211B2, “Demethylation to treat eye disease” (The Regents of the University of California, priority 2018, dated 2020)
